{
  "source": "patent US7468384B2",
  "about": "“Microbicidal composition” (Rohm and Haas Company, priority 2004, dated 2008)",
  "type_in_all_cases": "cell-based",
  "key": {"[1]": {"test_system": "Aspergillus niger (A. niger—ATCC 16404)", "assay": "Synergy test, microtiter plate high resolution MIC assay, mold", "parameters": "key to SI (calculated synergy index) / SI (synergy index): SI = Qa/QA + Qb/QB (mixture vs. alone end-point concentrations)", "details": "A. niger 16404, PDB", "text": "(§1) One measure of synergism is the industrially accepted method described by Kull, F. C.; Eisman, P. C.; Sylwestrowicz, H. D. and Mayer, R. L., in Applied Microbiology 9:538-541 (1961), using the ratio determined by the formula: Qa/QA+Qb/QB=Synergy Index (“SI”) wherein: • QA=concentration of compound A (first component) in ppm, acting alone, which produced an end point (MIC of Compound A). • Qa=concentration of compound A in ppm, in the mixture, which produced an end point. • QB=concentration of compound B (second component) in ppm, acting alone, which produced an end point (MIC of Compound B). • Qb=concentration of compound B in ppm, in the mixture, which produced an end point.\n(§2) When the sum of Qa/QA and Qb/QB is greater than one, antagonism is indicated. […] The lower the SI, the greater the synergy shown by that particular mixture. The minimum inhibitory concentration (MIC) of a microbicide is the lowest concentration tested under a specific set of conditions that prevents the growth of added microorganisms.\n(§3) Synergy tests were conducted using standard microtiter plate assays with media designed for optimal growth of the test microorganism. Soybean Casein Digest Broth (Tryptic Soy Broth, TSB medium) or minimal salt medium supplemented with 0.2% glucose and 0.1% yeast extract (M9GY medium) was used for testing bacteria; Potato Dextrose Broth (PDB medium) was used for testing yeast and mold. In this method, a wide range of combinations of microbicides was tested by conducting high resolution MIC assays in the presence of various concentrations of MI. High resolution MICs were determined by adding varying amounts of microbicide to one column of a microtitre plate and doing subsequent ten-fold dilutions using an automated liquid handling system to obtain a series of endpoints ranging from 2 ppm to 10,000 ppm active ingredient.\n(§4) For MI combinations, the synergy of the combinations of the present invention was determined against two bacteria, Escherichia coli (E. coli—ATCC #8739) or Pseudomonas aeruginosa (P. aeruginosa—ATCC #15442), a yeast, Candida albicans (C. albicans—ATCC 10231), and a mold, Aspergillus niger (A. niger—ATCC 16404). The bacteria were used at a concentration of about 5×10^6 bacteria per mL and the yeast and mold at 5×10^5 fungi per mL. These microorganisms are representative of natural contaminants in many consumer and industrial applications. […] (bacteria).\n(§5) For BIT combinations, the synergy of the combinations of the present invention was determined against a bacterium, Pseudomonas aeruginosa (P. aeruginosa—ATCC #15442), a yeast, Candida albicans (C. albicans—ATCC 10231), and a mold, Aspergillus niger (A. niger—ATCC 16404). The bacteria were used at a concentration of about 5×10^6 bacteria per mL and the yeast and mold at 5×10^5 fungi per mL. These microorganisms are representative of natural contaminants in many consumer and industrial applications. […] (yeast and mold) or 30° C. (bacteria)."}, "[2]": {"test_system": "Candida albicans (C. albicans—ATCC 10231)", "assay": "Synergy test, microtiter plate high resolution MIC assay, yeast", "details": "C. albicans 10231, PDB, 24 hours", "text": "as §1, §2, §3, §4, §5"}, "[3]": {"test_system": "Pseudomonas aeruginosa (P. aeruginosa—ATCC #15442)", "assay": "Synergy test, microtiter plate high resolution MIC assay, bacterium", "parameters": "key to SI (calculated synergy index) / SI (synergy index): SI = Qa/QA + Qb/QB (mixture vs. alone end-point concentrations)", "details": "for SI (calculated synergy index) / Qb: end-point activity (MIC) of second component in the mixture (alone, QB, where Qa = 0): Table 6; for Qb: end-point activity (MIC) of second component in the mixture (alone, QB, where Qa = 0): B = Cocamidopropyl PG-dimonium chloride phosphate", "text": "as §1, §2, §3, §4, §5"}, "[4]": {"test_system": "Escherichia coli (E. coli—ATCC #8739)", "assay": "Synergy test, microtiter plate high resolution MIC assay, bacterium", "details": "E. coli 8739, M9GY, 24 hours", "text": "as §1, §2\nas §3, with “In this method, a wide range of combinations of microbicides was tested by conducting high resolution MIC assays in the presence of various concentrations of MI.” left out\nas §4"}, "S. aureus 6538": {"test_system": "S. aureus 6538", "assay": "Synergy test, microtiter plate high resolution MIC assay, bacterium", "details": "S. aureus 6538, TSB", "text": "as §1, §2, §3"}, "[5]": {"details": "P. aeruginosa 15442, TSB, 48 hours"}, "[6]": {"details": "P. aeruginosa 15442, M9GY, 72 hours"}},
  "data": [
    {"molecule": "OCC(O)COc1ccc(Cl)cc1", "note": "(stereo not drawn) [Chlorphenesin]", "values": [
      {"measurement": "MIC of component acting alone (QA / QB)", "setting": "[1]; 4 days", "result": 2000, "unit": "ppm"},
      {"measurement": "Qb", "setting": "[1]; chlorphenesin concentration giving end point (MIC), alone or mixed with BIT, 1 week", "result": 2000, "unit": "ppm"},
      {"measurement": "SI", "setting": "[1]; synergy index BIT + chlorphenesin, 1 week", "result": 1.00},
      {"measurement": "MIC of component acting alone (QA / QB)", "setting": "[2]", "result": 2000, "unit": "ppm"},
      {"measurement": "MIC of component acting alone (QA / QB)", "setting": "[3]; P. aeruginosa 15442, M9GY, 48 hours", "result": 4000, "unit": "ppm"},
      {"measurement": "MIC of component acting alone (QA / QB)", "setting": "[3]; [5]", "result": 8000, "unit": "ppm"},
      {"measurement": "Qb", "setting": "[3]; chlorphenesin concentration giving end point (MIC), alone or mixed with BIT, P. aeruginosa 15442, M9GY, 72 hours", "result": 8000, "unit": "ppm"},
      {"measurement": "SI", "setting": "[3]; synergy index BIT + chlorphenesin, P. aeruginosa 15442, M9GY, 72 hours", "result": 1.00},
      {"measurement": "MIC of component acting alone (QA / QB)", "setting": "[4]", "result": 2000, "unit": "ppm"},
      {"measurement": "MIC of component acting alone (QA / QB)", "setting": "S. aureus 6538; 48 hours", "result": 5000, "unit": "ppm"}
    ]},
    {"molecule": "Cocamidopropyl PG-dimonium chloride phosphate", "values": [
      {"measurement": "SI (calculated synergy index)", "setting": "[1]; Table 6, 4 days", "result": 1.00},
      {"measurement": "Qb: end-point activity (MIC) of second component in the mixture (alone, QB, where Qa = 0)", "setting": "[1]; Table 6, 4 days, B = Cocamidopropyl PG-dimonium chloride phosphate", "result": 1000, "unit": "ppm"},
      {"measurement": "SI (synergy index)", "setting": "[1]; Table 22, 1 week", "result": 1.00},
      {"measurement": "Qb (second component at end point, MIC)", "setting": "[1]; Table 22, Cocamidopropyl PG-dimonium chloride phosphate with BIT, 1 week, alone where Qa = 0", "result": 3000, "unit": "ppm"},
      {"measurement": "SI (calculated synergy index)", "setting": "[2]; Table 6", "result": 1.00},
      {"measurement": "Qb: end-point activity (MIC) of second component in the mixture (alone, QB, where Qa = 0)", "setting": "[2]; Table 6, B = Cocamidopropyl PG-dimonium chloride phosphate", "result": 100, "unit": "ppm"},
      {"measurement": "SI (calculated synergy index)", "setting": "[3]; [6]", "result": 1.00},
      {"measurement": "Qb: end-point activity (MIC) of second component in the mixture (alone, QB, where Qa = 0)", "setting": "[3]; [6]", "result": 30, "unit": "ppm"},
      {"measurement": "SI (calculated synergy index)", "setting": "[3]; [5]", "result": 1.00},
      {"measurement": "Qb: end-point activity (MIC) of second component in the mixture (alone, QB, where Qa = 0)", "setting": "[3]; [5]", "result": 1000, "unit": "ppm"},
      {"measurement": "Qb (second component at end point, MIC)", "setting": "[3]; Table 22, Cocamidopropyl PG-dimonium chloride phosphate with BIT, P. aeruginosa 15442, M9GY, 72 hours, alone where Qa = 0", "result": 40, "unit": "ppm"},
      {"measurement": "SI (synergy index)", "setting": "[3]; Table 22, P. aeruginosa 15442, M9GY, 72 hours", "result": 1.00},
      {"measurement": "SI (calculated synergy index)", "setting": "S. aureus 6538; Table 6, 24 hours", "result": 1.00},
      {"measurement": "Qb: end-point activity (MIC) of second component in the mixture (alone, QB, where Qa = 0)", "setting": "S. aureus 6538; Table 6, 24 hours, B = Cocamidopropyl PG-dimonium chloride phosphate", "result": 30, "unit": "ppm"}
    ]}
  ]
}
